Source: publication PMC4915154, “Development of background-free tame fluorescent probes for intracellular live cell imaging” (Nature Communications, 2016)

Tests used:
[1] = Spectroscopic properties (absorbance, emission, extinction coefficient, quantum yield); assay type: physicochemical; details: 10 μM in DMSO
Procedure: Supplementary Table 9. Spectrocopic properties and purity table for CO-1 and CO-1H.
Calculated mass, experimental mass, absorbance maximum (λabs), fluorescent emission maximum (λem), extinction coefficient (ε), quantum yield (Φ), and purity. mass m/z λabs λem ε Purity […]
Absorbance and fluorescence emission data were recorded by a Synergy 4, Biotek Inc. fluorescent plate reader at 10 μM concentration in DMSO in 96-well plates. HRMS a: found mass (M-H), b: tetramethyl BODIPY was used as standard, c: purity data was calculated on the basis of the integration in HPLC trace at 254 nm.

[2] = test system: azide-tagged intracellular organelles in U-2 OS cells; assay: Live cell SPAAC labelling of azide-tagged organelles (mitochondria, lysosome, golgi apparatus); assay type: cell-based, human; details: U-2 OS cells pre-treated with TPP-Az, Sphingo-Az or Morph-Az, 2 μM probe, 1 h, 37 °C
From the text: Next, we investigated intracellular imaging in live cells using CO-1. We synthesized various azide-bearing reporters: TPP-Az, a triphenylphosphonium analogue which accumulates in mitochondria; Sphingo-Az, a ceramide analogue to target golgi apparatus; and Morph-Az, an azide derivative with morpholine moiety as a directing group for lysosome (Fig. 3a). SPAAC covalent labelling reactions between CO-1 and all azide reporters in vitro were clean and rapid. We anticipated that the cell permeable CO-1 is capable of labelling any azide reporters effectively, regardless the reporters' cellular localization. We added 2 μM CO-1 to the growth media of U-2 OS cells pre-treated with TPP-Az, Sphingo-Az or Morph-Az separately. Confocal fluorescence images were then taken after probe washing.
Figure 3 Live cell imaging with CO-1. (a) Chemical structures and schematic illustration of the covalent labelling of azide-tagged organelles using CO-1 in live cells. (b) Fluorescence imaging of mitochondria, lysosome and golgi apparatus in U-2 OS cells labelled with CO-1. Cells pre-treated with TPP-Az, Morph-Az or Sphingo-Az were incubated with 2 μM CO-1 in growth media at 37 °C for 1 h and followed by counterstaining with organelle trackers. Scale bar, 15 μm. (c) Fluorescence imaging of histone H2B in live U-2 OS. U-2 OS cells were co-transfected with plasmids pIre-Azi3 and pmH2B-6-mKate2-16tag to incorporate UAA Azi into H2B-mKate2 at site 16. After Azi incorporation, cells were labelled with 10 μM CO-1 for 90 min at 37 °C. Cells were then washed and imaged. The mKate2 (red) signals were detected in cell nuclei only, and colocalized with the CO-1 (green) signals in the merged image. Scale bar, 5 μm.
U-2 OS cells were treated with 5 μM TPP-Az, in culture media for 2 h at 37 °C. After incubation, cells were washed and added with 2 μM CO-1 probe. Labelling was allowed to proceed for 1 h at 37 °C in the incubator chamber. […]
Fluorescence imaging of mitochondria, lysosome and golgi apparatus in U-2 OS cells labeled with CO-1H. […] In contrast to CO-1, high fluorescence background from CO-1H was observed. […]

[3] = Photostability measurements; assay type: physicochemical; details: 10 μM in PBS buffer pH 7.4 with 1% DMSO, intensive radiation of strong light source
Procedure: 10 μM of CO-1 solution in PBS buffer (pH 7.4) containing 1% DMSO were placed in a 96-well plates. Fluorescence measurement were recorded every 30 s interval for a total period of 12 h (Ex/Em=490/520) under a xenon flashlamp. For harsh condition experiment, photostability test was done under high intensity UV lamp (Blak Ray, 100 W, 365 nm). Plates were irradiated for 10 min up to 2.5 h at 10 cm distance.
Supplementary Figure 17 Photostability analysis of CO-1.
10 μM CO-1 solution in PBS buffer (pH 7.4) containing 1% DMSO were placed in a 96-well plates. (a) Fluorescence measurement were recorded every 30 seconds interval for a total period of 12 hours (Ex/Em = 490/520) under a xenon flashlamp. (b) Photostability test under high intensity UV lamp (Blak Ray, 100W, 365 nm). Plates were irradiated for 10 minutes up to 2.5 hours at 10 cm distance. Values are represented as means (n=3) and fitted to a non-linear regression one-phase exponential decay (GraphPad Prism 5.0)
(1 picture or pasted object on this page, not shown here)

Question: With `Cc1cc(C)n2c1C(CCNC(=O)CCC(=O)OCC1C3CCC#CCCC31)=C1C=CC=[N+]1[B-]2(F)F` (stereo not shown) [CO-1] as the compound, how does the ε [1] read?
Answer: The ε was 66668 M⁻¹ cm⁻¹.

Question: What about the λabs [1] of the same compound?
Answer: The λabs was 490 nm.

Question: And the λem [1]?
Answer: The λem was 510 nm.

Question: And the “QY (Φ)” value ([1]; tetramethyl BODIPY as standard)?
Answer: Its value is 0.66.

Question: What about the “Fluorescence background after washing” value [2] of the same compound?
Answer: Its value is “Clean fluorescence background”.

Question: And the “Labelling of azide-tagged organelles” value [2]?
Answer: Its value is “clearly labelled the azide-tagged intracellular organelles in live cells”.

Question: And the Photostability [3]?
Answer: The Photostability was “superior photostability”.
